Measurements published in article PMC10257519 (European journal of medicinal chemistry, 2022).
Like-named read-outs stand apart in the source and are kept apart here. Values belong to the molecule of their own block, whether it stands above or below them.

Experiments:
[1] = tested on: HCT116 human colon cancer cells; experiment: Cell growth inhibition / viability assay
[2] = reported earlier; cited from earlier work
[3] = tested on: PARP1 cleavage in HCT116 cells; experiment: Western blot analysis of PARP1 cleavage; format: cell-based, human; settings: HCT116 cells treated for 24 h
[4] = S9 fraction metabolic stability assay; format: in vitro ADME, human; settings: 0.02 mM substrate, NADPH, 37 °C, monitored over 2 h
NCI 60 cell lines = experiment: NCI 60 cell five-dose assay; format: cell-based; settings: read-out: TGI (μM)
[5] = tested on: acetyl–H3 and pan acetyl–lysine; experiment: Hyperacetylation assay by Western blot; format: cell-based, human; settings: 5 and 10 μM
[6] = tested on: human retinal pigment epithelial RPE cells; experiment: Cell viability assay on normal cells; settings: at a maximum concentration of 30 μM
[7] = Homo sapiens, HCT-116, read-out: IC50 ± SD (μM) (n = 3) on HCT116 cell line

- IC50 [1, 7]: 3.45 ± 0.36 µM
Molecule: COc1cc(NC(=O)CCCCCCNC(=O)C(O)(O)C(F)(F)F)cc(OC)c1OC [Compound 71, 7-(3,3,3-trifluoro-2,2-dihydroxypropanamido)-N-(3,4,5-trimethoxyphenyl)heptanamide]

Molecule: O=C(CCCCCCC(=O)C(F)(F)F)Nc1ccccc1 [Compound 91]
- half-life [2]: less than 30 min

Molecule: COc1ccc2sc(NC(=O)CCCCCCNC(=O)C(O)(O)C(F)(F)F)nc2c1 [Compound 83, N-(5-methoxybenzo[d]thiazol-2-yl)-7-(3,3,3-trifluoro-2,2-dihydroxypropanamido)heptanamide]
- cleaved PARP1 (Western blot) [3]: Dose-dependent elevation

- disappearance of the M+1 peak in S9 fraction [4]: did not disappear over 2 h
Molecule: O=C(CCCCCCNC(=O)C(O)(O)C(F)(F)F)Nc1nccs1 [Compound 60, N-(thiazol-2-yl)-7-(3,3,3-trifluoro-2,2-dihydroxypropanamido) heptanamide]

Molecule: O=C(CCCCCCNC(=O)C(O)(O)C(F)(F)F)Nc1ncc(-c2ccccc2)s1 [Compound 58, N-(5-phenylthiazol-2-yl)-7-(3,3,3-trifluoro-2,2-dihydroxypropanamido)heptanamide]
- IC (TGI) (NCI 60 cell lines): 17 µM

- HCT116 IC50 ([1]; zinc-binding group screening, maximum concentration of 100 μM): inactive
Molecule: OC(O)(c1c(F)c(F)c(-n2cc(-c3ccccc3)nn2)c(F)c1F)C(F)(F)F [Compound 89]

- IC50 [1, 7]: 7.56 ± 0.73 µM
Molecule: O=C(CCCCCCNC(=O)C(O)(O)C(F)(F)F)Nc1nc2ccc(Br)cc2o1 [Compound 80, N-(6-bromobenzo[d]oxazol-2-yl)-7-(3,3,3-trifluoro-2,2-dihydroxypropanamido)heptanamide]

Molecule: N-phenyl-6-(3,3,3-trifluoro-2,2-dihydroxypropanamido)hexanamide [Compound 10b]
- IC50 ([1]; read-out: IC50 (μM) HCT116, effect of linker length, linker length n = 3–7): 54.4 ± 6.02 µM

Molecule: O=C(CCCCCCNC(=O)C(O)(O)C(F)(F)F)Nc1ncc(-c2ccc(Br)cc2)s1 [Compound 85, N-(5-(4-bromophenyl)thiazol-2-yl)-7-(3,3,3-trifluoro-2,2-dihydroxypropanamido)heptanamide]
- cleaved PARP1 (Western blot) [3]: Dose-dependent elevation

Molecule: COc1ccc(-c2cnc(NC(=O)CCCCCCNC(=O)C(O)(O)C(F)(F)F)s2)cc1 [Compound 84, N-(5-(4-methoxyphenyl)thiazol-2-yl)-7-(3,3,3-trifluoro-2,2-dihydroxypropanamido)heptanamide]
- levels of acetylated H3 (Western blot) [5]: increased levels
- levels of pan-acetyl-lysine (Western blot) [5]: increased levels
- cleaved PARP1 (Western blot) [3]: Absence of PARP1 cleavage

Molecule: COc1ccc(NC(=O)CCCCCCNC(=O)C(O)(O)C(F)(F)F)cc1 [Compound 55, N-(4-methoxyphenyl)-7-(3,3,3-trifluoro-2,2-dihydroxypropanamido)heptanamide]
- cell survival, RPE [6]: more than 50%
